Test results reported in patent US20240277682A1, “PHARMACEUTICAL HYDRONIDONE FORMULATIONS FOR DISEASES” (Gyre Therapeutics, Inc., priority 2021, published 2024).
Like-named read-outs stand apart in the source and are kept apart here.

What was measured:
[1] = In vitro Phase I metabolism in human liver microsomes; type: in vitro ADME
Method: The in vitro Phase I metabolism of hydronidone was evaluated by incubating human liver microsomes with hydronidone for 60 minutes.

human CYP 2 D6 = human CYP 2 D6 (Homo sapiens, UniProt P10635); experiment: CYP450 inhibition, fluorescence of metabolic substrates
Method: (§1) In vitro study investigated whether Hydronidone is inhibitor for human cytochrome P450 (CYP450). The effects of different Hydronidone concentrations were determined by the fluorescence intensity of metabolic substrates of CYP1A2, 2C9, 2C19, 2 D6 and 3A4, produced under the effect of the relevant enzyme. The respective IC50 value were calculated in the event of observed inhibition with hydronidone.

human CYP 2C19 = human CYP 2C19 (Homo sapiens, UniProt P33261); experiment: as above
Method: as §1

human CYP 2C9 = human CYP 2C9 (Homo sapiens, UniProt P11712); experiment: as above
Method: as §1

human CYP 3A4 = human CYP 3A4 (Homo sapiens, UniProt P08684); experiment: as above
Method: as §1

[2] = PK study of single ascending oral doses in healthy volunteers (Example 7); type: in vivo, human; settings: for CL renal / AUC / AUC(0-t) / Cmax / Tmax: male, human; for CL renal: plasma and urine; for CL renal / AUC / AUC(0-t) / Cmax / Tmax / Cl_F_pred / HL_Lambda_z / Lambda_z / Vz_F_pred: fasted; for CL renal / AUC / AUC(0-t) / Cmax / Cl_F_pred / HL_Lambda_z / Lambda_z / Vz_F_pred / Amount_Recovered / Percent_Recovered (urinary percentage of Hydronidone): n = 12, Mean(SD); for AUC / AUC(0-t) / Cmax / Tmax: plasma; for AUC: healthy Chinese subjects, read-out: AUCINE_pred; for Tmax: n = 12, Median (Min-Max); for Amount_Recovered / Percent_Recovered (urinary percentage of Hydronidone): urine
Method: This was randomized, open-label, 4-period, crossover PK study of single ascending oral doses of Hydronidone in healthy volunteers.
Ascending single oral doses of 200 mg, 400 mg, 600 mg and 800 mg of Hydronidone were given to 12 eligible, healthy male Chinese subjects, 26-38 years of age, satisfying all inclusion and exclusion criteria, and randomly divided into four dose groups, 3 subjects per group, under fasted conditions. According to the Williams Design, the subjects in each group were treated with Hydronidone at four different doses in four periods. The PK blood samples were collected at: 0 (pre-dose), 10 min, 20 min, 30 min, 40 min, 1 hr, 1.5 hr, 2 hr, 3 hr, 4 hr, 5 hr, 6 hr, 8 hr, 10 hr, 12 hr, 16 hr, and 24 hr, and 48 hr post-dose. The subjects also provided PK urine samples at 0 (pre-dose), 5 hr, 12 hr, and 24 hr post-dose. There was additional 24 hr washout period after the end of collection of PK samples, a total of 48 hrs between the first and the next dose level administration. Blood and urine samples were analysed for determination of plasma and urine concentrations of Hydronidone and its metabolites (M3).

[3] = Crossover study of food effect on safety, tolerability and PK of a single oral dose (Example 8); type: in vivo, human
Method: This was a randomized, open-label, 2-period, crossover PK study of effects of food on safety, tolerability, and PK of single oral doses of Hydronidone in healthy Chinese subjects. The PK parameters of the M3 and M4 metabolites of Hydronidone, in presence or absence of food were also determined.
Twelve healthy Chinese subjects were enrolled, dosed and in this inpatient study. They were randomly assigned in two groups/periods to receive a single oral 600 mg (3×200 mg) dose of Hydronidone either under fasted, or fed (high fat) conditions. Within each treatment period, PK blood samples were collected at: 0 (pre-dose), 10 min, 20 min, 30 min, 40 min, 1 hr, 1.5 hr, 2 hr, 3 hr, 4 hr, 5 hr, 6 hr, 8 hr, 10 hr, 12 hr, 16 hr, and 24 hr, and 48 hr post-dose. The wash-out period between the two periods in this trial was 48 hours.

[4] = Parallel group PK study of multiple ascending oral doses (Example 9); type: in vivo, human
Method: This was randomized, open-label, parallel group PK study of multiple ascending oral doses of Hydronidone in healthy Chinese subjects.
In this study, ascending oral doses of Hydronidone of 200 mg, 400 mg, and 600 mg TID, were administered to 27 healthy subjects (15 males and 12 females) divided into 3 groups (9 subjects/group), for four (4) consecutive days. This was an inpatient study. Hydronidone was administered under fasted conditions. Blood and urine samples were collected for PK assessments. The PK assessments were performed upon single (after the first dose) and multiple dosing. Standard safety evaluations were also performed including physical examination, ECG, hematology, serum biochemistry and urinalysis.

[5] = single oral 600 mg dose of Hydronidone, fed vs fasted

Structure (SMILES): Cc1ccc(=O)n(-c2ccc(O)cc2)c1 [Hydronidone, N-(4-hydroxyphenyl)-5-Methyl-2-pyridone]
- formation of metabolites [1]: no formation of metabolites was observed
- IC50 (human CYP 2 D6): > 100 µM
- IC50 (human CYP 2C19): > 100 µM
- IC50 (human CYP 2C9): > 100 µM
- IC50 (human CYP 3A4): > 100 µM
- amount of intact drug excreted via urine during 48 h ([2]; first of four values (doses 200, 400, 600, 800 mg): 200 mg): 82.25 ± 40.95 mg
- amount of intact drug excreted via urine during 48 h ([2]; fourth of four values: 800 mg): 234.72 ± 210.50 mg
- CL renal ([2]; single oral dose 200 mg): 14.7 mL/min
- CL renal ([2]; single oral dose 400 mg): 11.1 mL/min
- CL renal ([2]; single oral dose 600 mg): 9.83 mL/min
- CL renal ([2]; single oral dose 800 mg): 8.7 mL/min
- AUC ([2]; single oral dose 200 mg): 1380 ng·h/mL
- AUC(0-t) ([2]; single oral dose 200 mg): 1360 ng·h/mL
- Cmax ([2]; single oral dose 200 mg): 715 ng/mL
- Tmax ([2]; single oral dose 200 mg): 19.8 min
- AUC ([2]; single oral dose 400 mg): 2800 ng·h/mL
- AUC(0-t) ([2]; single oral dose 400 mg): 2780 ng·h/mL
- Cmax ([2]; single oral dose 400 mg): 1400 ng/mL
- Tmax ([2]; single oral dose 400 mg): 19.8 min
- AUC ([2]; single oral dose 600 mg): 5010 ng·h/mL
- AUC(0-t) ([2]; single oral dose 600 mg): 4920 ng·h/mL
- Cmax ([2]; single oral dose 600 mg): 2500 ng/mL
- Tmax ([2]; single oral dose 600 mg): 40.2 min
- AUC ([2]; single oral dose 800 mg): 6310 ng·h/mL
- AUC(0-t) ([2]; single oral dose 800 mg): 6290 ng·h/mL
- Cmax ([2]; single oral dose 800 mg): 2960 ng/mL
- Tmax ([2]; single oral dose 800 mg): 40.2 min
- amount of intact drug excreted via urine during 48 h ([2]; second of four values: 400 mg): 183.75 ± 142.14 mg
- Cl_F_pred ([2]; single oral dose 200 mg): 154(39.65) L/hr
- HL_Lambda_z ([2]; single oral dose 200 mg): 6.9(2.06) hr
- Lambda_z ([2]; single oral dose 200 mg): 0.1093(0.03) l/hr
- Vz_F_pred ([2]; single oral dose 200 mg): 1540(644.41) L
- Cl_F_pred ([2]; single oral dose 400 mg): 154(44.83) L/hr
- HL_Lambda_z ([2]; single oral dose 400 mg): 5.26(1.58) hr
- Lambda_z ([2]; single oral dose 400 mg): 0.1434(0.04) l/hr
- Vz_F_pred ([2]; single oral dose 400 mg): 1180(530.69) L
- Cl_F_pred ([2]; single oral dose 600 mg): 129(35.67) L/hr
- HL_Lambda_z ([2]; single oral dose 600 mg): 6.46(2.07) hr
- Lambda_z ([2]; single oral dose 600 mg): 0.1141(0.02) l/hr
- Vz_F_pred ([2]; single oral dose 600 mg): 1180(407.19) L
- Cl_F_pred ([2]; single oral dose 800 mg): 134(35.93) L/hr
- HL_Lambda_z ([2]; single oral dose 800 mg): 5.54(0.86) hr
- Lambda_z ([2]; single oral dose 800 mg): 0.1278(0.02) l/hr
- Vz_F_pred ([2]; single oral dose 800 mg): 1080(336.89) L
- safety and tolerability ([2]; single oral doses of 200, 400, 600, 800 mg, Chinese healthy subjects): safe and well tolerated with no adverse events nor SAEs reported
- amount of intact drug excreted via urine during 48 h ([2]; third of four values: 600 mg): 218.93 ± 182.73 mg
- Amount_Recovered ([2]; single oral dose 200 mg): 1.27(1.34) L*mg/L
- Percent_Recovered (urinary percentage of Hydronidone) ([2]; single oral dose 200 mg): 0.634±0.57%
- Percent_Recovered (urinary percentage of Hydronidone) ([2]; single oral dose 200 mg, listed as hydronidone): 0.634(0.57) %
- Amount_Recovered ([2]; single oral dose 400 mg): 1.92(0.87) L*mg/L
- Percent_Recovered (urinary percentage of Hydronidone) ([2]; single oral dose 400 mg): 0.479±0.22%
- Percent_Recovered (urinary percentage of Hydronidone) ([2]; single oral dose 400 mg, listed as hydronidone): 0.479(0.22) %
- Amount_Recovered ([2]; single oral dose 600 mg): 2.86(1.19) L*mg/L
- Percent_Recovered (urinary percentage of Hydronidone) ([2]; single oral dose 600 mg): 0.476±0.2%
- Percent_Recovered (urinary percentage of Hydronidone) ([2]; single oral dose 600 mg, listed as hydronidone): 0.476(0.2) %
- Amount_Recovered ([2]; single oral dose 800 mg): 3.22(2.03) L*mg/L
- Percent_Recovered (urinary percentage of Hydronidone) ([2]; single oral dose 800 mg): 0.403±0.25%
- Percent_Recovered (urinary percentage of Hydronidone) ([2]; single oral dose 800 mg, listed as hydronidone): 0.403(0.25) %
- effect of food (high-fat meal) on Cmax [3, 5]: decreasing their Cmax values
- effect of food (high-fat meal) on rate of absorption [3, 5]: delayed the rate of absorption
- safety and tolerability ([3]; single oral 600 mg dose, fed or fasted): safe and well tolerated, without SAEs or AEs reported
- number of adverse events reported ([4]; 200 mg TID and 400 mg TID multiple-dose groups, mild): 7 adverse events
- dose proportionality of exposure ([4]; 200-600 mg TID): increasing with the dose but without strict dose proportionality
- deaths and SAEs ([4]; 200-600 mg TID, 4 days): No deaths nor SAEs were reported
- safety and tolerability ([4]; 200-600 mg TID, 4 days): safe and well tolerated
- exposure by sex ([4]; across dose levels): Male subjects had lower exposures as compared to female subjects
- Tmax ([4]; both sexes, human, plasma, oral, 200, 400, 600 mg TID, fasted, healthy Chinese subjects): ~60 min
- accumulation ([4]; single vs multiple dosing, TID for 4 days): no obvious accumulation
- plasma level at 36 hrs. post-dose ([4]; upon single dosing, parent drug and major metabolites): undetectable
